One experiment has as its system HMGCR. Briefly: Western blot, HepG2 HMGCR protein. Format: cell-based, human. As to conditions: HepG2, Mdivi-1 50 μM, 24 hours. (A western blot detects proteins with antibodies after separation by electrophoresis.)
The next experiment deals with BECLIN1. Briefly: BECLIN1 mRNA and protein. Format: cell-based, human. The conditions noted are these: 24 hours. The text has this:
Human cells and mouse liver was homogenized with TriZolTM (Life Technologies, Grand Island, N.Y.) to isolate RNA. QuantiTectTM Reverse Transcription Kit (Qiagen, Hilden, Germany) was used for reverse transcription on total RNA. cDNA was generated using the Quanta gScriptTM cDNA Synthesis Kit (Bioscience Inc., Gaithersburg, Md.). mRNA levels were quantified on a 7900HT real-time PCR system (Thermo Fisher Scientific) using TaqManTM real-time PCR with the following probes: Hs02758991_g1 (human GAPDH); Mm99999915_g1 (mouse Gapdh); Hs00236329 m1 (human BCL2L1); Hs00247147_m1 (human DRP1); Hs00545399_m1 (human PCSK9); Mm01263610_m1 (mouse Pcsk9); Hs00168352_m1 (human HMGCR); […]); Hs00181192_m1 (human LDLR); Mm00440169_m1 (mouse Ldlr); Hs01088691_m1 (human SREBP1); Mm00550338_m1 (mouse Srebp1); Hs00231674_m1 (human SREBP1a); custom primer (human SREBP1c); Hs01081784_m1 (human SREBP2); Mm01306292_m1 (mouse Srebp2); Hs01005622_m1 (human FASN); […]); Hs00167041_m1 (human HNF1A); Mm00493434_m1 (mouse Hnf1a); Hs00171168 (human APOE); Hs01059118_m1 (human ABCA1); Hs01103582_s1 (human JUN). Mouse SREBP-1c was analyzed by SYBERTM green PCR with the following primers: [NT] […] Protein concentrations were determined by the Pierce BCA AssayTM (Thermo Fisher Scientific). […] Protein levels were normalized to β-ACTIN, α-TUBULIN, or LAMIN A/C with the use of NIH ImageJ software for quantification.

On to `COc1cc(-n2c(S)nc3ccccc3c2=O)c(Cl)cc1Cl` [Mdivi-1, 3-(2,4-Dichloro-5-methoxyphenyl)-2,3-dihydro-2-thioxo-4(1H)-quinazolinone], for which the HMGCR abundance increase entry in the experiment with HMGCR was “not”. The BECLIN1 protein abundance result in the experiment with BECLIN1 (HepG2, Mdivi-1 50 μM) is listed as “did not alter”. In the experiment with BECLIN1 (human hepatocytes, Mdivi-1 50 μM), the “BECLIN1 mRNA” value is reported as “did not alter”.

Source of the values: US10960020B2, “Modulation of PCSK9 and LDLR through DRP1 inhibition” (THE BRIGHAM AND WOMEN'S HOSPITAL, INC., priority 2016, dated 2021).
